Values quoted from earlier work, collected in US20150246027A1, “FIXED DOSE PHARMACEUTICAL COMPOSITION COMPRISING DEFERASIROX AND DEFERIPRONE” (CIPLA LIMITED, priority 2012, published 2015).
Values after ≈ are worked out from the molar mass of the structure shown. “Also recorded” adds a separate entry of the source.

Columns and labels:
[1] = for solubility in water (in words): water / aqueous media
[2] = Bio-pharmaceutics Classification System
[3] = oral; majority excreted as inactive glucuronide metabolite

solubility at pH 6.8 (in words) ([1]; pH 6.8, until the buffer strength is altered)	BCS class [2]	permeability (in words)	solubility in water ([1]; water)	ingested dose excreted as the active form [3]	SMILES	solubility in water (in words) [1]
insoluble	Class II	good permeability			O=C(O)c1ccc(-n2nc(-c3ccccc3O)nc2-c2ccccc2O)cc1 [Deferasirox, 4-[3,5-bis(2-hydroxyphenyl)-[1,2,4]triazol-1-yl]enzoic acid]	highly water-insoluble; also recorded: practically insoluble
			12.95 mg/mL (≈ 93.1 mM)	less than 10%	Cc1c(O)c(=O)ccn1C [Deferiprone, 3-hydroxy-1,2-dimethylpyridin-4-one]	sparingly soluble
